Results taken from paper PMC7926726, “The Wound Healing Peptide, AES16-2M, Ameliorates Atopic Dermatitis In Vivo” (Molecules, 2021).
Ends that are not written are not given here.

Assay: Water solubility of the peptide
Type: physicochemical
Conditions: in water; analysed by Anygen; previously described [16] and updated in this study
Method: To investigate whether the wound healing peptide, AES16-2M, could improve AD, Dermatophagoides farina (Df) body-induced AD model was established, and 10 mg/kg of AES16-2M was used as the optimal dose determined by preliminary experiments. […] Since increased IgE and TSLP production is closely related to AD pathology, the total IgE levels from sera were determined.
AES16-2M was synthesized and analyzed for purity, water solubility, and molecular weight by Anygen (Gwang Ju, Korea). Peptide with purity over 95% was used for this study.

REGRT [AES16-2M]
water solubility: over 10.0 mg/mL
